The text below walks through data of US9546153B2, “Bicyclic heterocycle substituted pyridyl compounds useful as kinase modulators” (BRISTOL-MYERS SQUIBB COMPANY, priority 2012, dated 2017).

In assay [1] the test system is TLR2 induced IL-6 in peripheral blood mononuclear cells (PBMCs). The experiment in a line: PBMC TLR2 Induced IL-6 Assay. The class given is cell-based, human. As to conditions: human PBMCs, 10 μg/ml lipoteichoic acid for 5 hours, IL-6 by ELISA; for IC50: value without asterisk, read-out: Cell IC50; for EC50: EC50 determinations are indicated with an asterisk, read-out: Cell EC50 (asterisk). The procedure, abridged:
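Human PBMCs (250000 cells/well) in RPMI with 10% heat-inactivated FCS pre-treated with compound for 30 min at 37° C, then stimulated 5 h with 10 μg/ml lipoteichoic acid. Supernatant IL-6 measured by ELISA and reported as IC50 or EC50.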
For orientation: ELISA stands for enzyme-linked immunosorbent assay.

A further assay has as its target IRAK4 (Homo sapiens (Human), UniProt Q9NWZ3). As to the kind of experiment: IRAK4 Inhibition Assay. In kind it is biochemical. As to conditions: ATP 500 μM; IRAK4 0.6 nM; 60 min at room temperature. Here is the method: The assays were performed in U-bottom 384-well plates. […] The reaction was initiated by the combination of IRAK4 with substrates and test compounds. The reaction was incubated at room temperature for 60 min. and terminated by adding 45 μL of 35 mM EDTA to each sample. The reaction mixture was analyzed on the Caliper LABCHIP® 3000 (Caliper, Hopkinton, Mass.) by electrophoretic separation of the fluorescent substrate and phosphorylated product.

Molecules are shown by their SMILES. Where two headings read alike, the source gives them in different places.

Chain of IRAK4 (Q9NWZ3 whole entry, species assumed): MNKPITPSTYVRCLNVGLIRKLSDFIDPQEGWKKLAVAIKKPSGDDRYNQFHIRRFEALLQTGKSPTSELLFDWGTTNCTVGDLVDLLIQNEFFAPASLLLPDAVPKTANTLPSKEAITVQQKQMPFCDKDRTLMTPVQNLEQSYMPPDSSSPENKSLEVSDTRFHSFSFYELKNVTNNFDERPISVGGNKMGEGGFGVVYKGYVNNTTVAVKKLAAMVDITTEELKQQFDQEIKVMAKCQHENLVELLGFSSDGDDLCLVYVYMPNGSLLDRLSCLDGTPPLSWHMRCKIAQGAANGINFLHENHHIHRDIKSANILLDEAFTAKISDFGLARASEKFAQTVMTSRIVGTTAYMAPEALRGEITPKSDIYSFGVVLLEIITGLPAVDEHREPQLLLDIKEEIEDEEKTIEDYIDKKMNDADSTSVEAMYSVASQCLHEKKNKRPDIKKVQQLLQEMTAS

`CC(C)Nc1cc(Nc2ccn3nccc3n2)ncc1C(=O)NC12CCC(N)(CC1)CC2` [Example 318, N-(4-aminobicyclo[2.2.2]octan-1-yl)-4-(isopropylamino)-6-(pyrazolo[1,5-a]pyrimidin-5-ylamino)nicotinamide]: the half-maximal inhibitory concentration (IC50) in assay [1] (Homo sapiens, PBMC, 5 h) came out at 278 nM; at IRAK4, 6.9 nM.
As for `CCNc1cc(Nc2nc3ccnn3cc2F)ncc1C(=O)NC1CCC(C(C)(C)O)CC1` (stereo not shown) [Example 492], the EC50 in assay [1] (Homo sapiens, PBMC, 5 h) was found to be 454 nM. Besides, at IRAK4, the concentration for half-maximal inhibition (IC50) worked out at 12.1 nM.
With `CC(C)(O)C(F)(F)CNC(=O)c1cnc(Nc2nc3scnc3cc2F)cc1NC1CC1` [Example 493], in assay [1] (Homo sapiens, PBMC, 5 h), the EC50 amounted to 365 nM. Besides, the concentration for half-maximal inhibition (IC50) on IRAK4 worked out at 4.3 nM.
Take `CC(C)(O)[C@H](F)CNC(=O)c1cnc(Nc2ccc3ncsc3n2)cc1NC1CCOCC1` [Example 312]: the IC50 in assay [1] (Homo sapiens, PBMC, 5 h) came to 29 nM; on IRAK4 it was 1 nM.
As for `CC(C)Nc1cc(Nc2ccc3ncsc3c2)ncc1C(=O)NC12CCC(O)(CC1)C2` [Example 176], the IC50 stood at 489 nM in assay [1] (Homo sapiens, PBMC, 5 h) and 10.3 nM on IRAK4.
As for `CC(CO)Nc1cc(Nc2nc3scnc3cc2F)ncc1C(=O)NC[C@@H](F)C(C)(C)O` (stereo partly shown) [Example 460], the figures for the half-maximal inhibitory concentration (IC50) (in assay [1]; at IRAK4) were 553 nM and 3.3 nM, respectively.
Regarding `CC(C)(O)[C@H](F)CNC(=O)c1cnc(Nc2ccc3ncsc3c2)cc1N[C@@H]1CCCC1F` (stereo partly shown) [Example 343], the results for the IC50 (in assay [1]; on IRAK4) were 114 nM and 3 nM, respectively.
With `CC(C)(O)[C@H](F)CNC(=O)c1cnc(Nc2ccc3nonc3c2)cc1NC1CCC1` [Example 98], the IC50 in assay [1] (Homo sapiens, PBMC, 5 h) came to 165 nM; at IRAK4, 7.2 nM.
Take `CC(C)C(O)[C@H](F)CNC(=O)c1cnc(Nc2ccc3ncsc3c2)cc1N[C@@H]1CCC[C@H]1O` (stereo partly shown) [Example 332]: the IC50 in assay [1] worked out at 791 nM; at IRAK4, 3.1 nM.
As to `CC(C)(O)[C@H](F)CNC(=O)c1cnc(Nc2ccc3nccn3n2)cc1NC1CCOCC1` [Example 279], the concentration for half-maximal inhibition (IC50) in assay [1] (Homo sapiens, PBMC, 5 h) worked out at 292 nM; on IRAK4, 4 nM.
Regarding `CC(C)NC(=O)N[C@@H](C)CCNC(=O)c1cnc(Nc2ccc3ncsc3c2)cc1NC(C)C` [Example 181], the concentration for half-maximal inhibition (IC50) in assay [1] (Homo sapiens, PBMC, 5 h) came to 453 nM; on IRAK4 it was 7.6 nM.
With `CC(C)(O)[C@H](F)CNC(=O)c1cnc(Nc2ccn3nccc3n2)cc1NC1CCC(F)C1` (stereo partly shown) [Example 255], the IC50 amounted to 86 nM in assay [1] and 2.4 nM on IRAK4.
As for `CCOC(=O)C1CC(Nc2cc(Nc3ccc4ncsc4c3)ncc2C(=O)NC[C@@H](F)C(C)(C)O)C1` (stereo partly shown) [Example 70], the half-maximal inhibitory concentration (IC50) in assay [1] (Homo sapiens, PBMC, 5 h) is 530 nM; at IRAK4, 8.7 nM.
As for `CC(C)(O)[C@H](F)CNC(=O)c1cnc(Nc2ccn3nccc3c2)cc1NC1CCC(F)(F)C1` (stereo partly shown) [Example 293], the IC50 was 310 nM in assay [1] (Homo sapiens, PBMC, 5 h) and 1.8 nM on IRAK4.
For the compound `CC(C)(O)[C@H](F)CNC(=O)c1cnc(Nc2ccn3nccc3n2)cc1NC1CC(F)C1` (stereo partly shown) [Example 263], the half-inhibitory concentration (IC50) was 190 nM in assay [1] (Homo sapiens, PBMC, 5 h) and 4.2 nM on IRAK4.
As for `CC(C)Nc1cc(Nc2ccc3ncsc3c2)ncc1C(=O)N[C@H]1CC[C@H](NC(=O)N2CCOCC2)CC1` [Example 205], the IC50 in assay [1] (Homo sapiens, PBMC, 5 h) came out at 169 nM; at IRAK4 it was 1.8 nM.
Turning to `CCOC(=O)NC12CCC(Nc3cc(Nc4ccc5ncsc5c4)ncc3C(=O)NC[C@@H](F)C(C)(C)O)(CC1)C2` [Example 397], the IC50 amounted to 197 nM in assay [1] (Homo sapiens, PBMC, 5 h) and 4.9 nM at IRAK4.
On the same counts, the results for `CC(C)(C)CNc1cc(Nc2ccc3nccn3n2)ncc1C(=O)NC[C@@H](F)C(C)(C)O` [Example 275] are 335 nM and 3.1 nM.
For the compound `CC(C)Nc1cc(Nc2ccc3ncc(Cl)cc3n2)ncc1C(=O)NC[C@@H](F)C(C)(C)O` [Example 374], the IC50 in assay [1] (Homo sapiens, PBMC, 5 h) came out at 271 nM; on IRAK4 it was 3.1 nM.
On to `CNC(=O)c1cnc(Nc2ccc3c(c2)C(F)(F)C(=O)N3)cc1NC1CCCC1` [Example 1, 4-(cyclopentylamino)-6-(3,3-difluoro-2-oxoindolin-5-ylamino)-N-methylnicotinamide], for which the IC50 in assay [1] (Homo sapiens, PBMC, 5 h) was found to be 612 nM; on IRAK4, 4.4 nM.
Turning to `CC(C)(O)[C@H](F)CNC(=O)c1cnc(Nc2ccn3nccc3n2)cc1NC1CCC(F)C1` (stereo partly shown) [Example 247], the IC50 in assay [1] was 170 nM; at IRAK4, 2.7 nM.
Take `CC(C)Nc1cc(Nc2ccc3ncsc3c2)ncc1C(=O)NC[C@@H](F)C(C)(O)C(F)(F)F` (stereo partly shown) [Example 17]: the half-inhibitory concentration (IC50) came to 221 nM in assay [1] (Homo sapiens, PBMC, 5 h) and 4.7 nM on IRAK4.
Turning to `CC(C)(O)[C@H](F)CNC(=O)c1cnc(Nc2ccc3ncsc3c2)cc1NC1CC(CO)C1` (stereo partly shown) [Example 69], the concentration for half-maximal inhibition (IC50) in assay [1] (Homo sapiens, PBMC, 5 h) is 365 nM; at IRAK4, 3.4 nM.
Consider `CCNC(=O)c1ccc(Nc2cc(Nc3ccc4ncsc4c3)ncc2C(=O)NC[C@@H](F)C(C)(C)O)cc1` [Example 322], for which the 50% inhibitory concentration (IC50) in assay [1] (Homo sapiens, PBMC, 5 h) turned out to be 495 nM; on IRAK4 it was 8.5 nM.
In the case of `CC(C)(O)[C@H](F)CNC(=O)c1cnc(Nc2ccc3ncsc3c2)cc1N[C@@H](c1cc(F)cc(F)c1)[C@H](O)CO` [Example 65], the 50% inhibitory concentration (IC50) in assay [1] (Homo sapiens, PBMC, 5 h) was 170 nM; at IRAK4 it was 3.9 nM.
The matching figures for `CC(C)C(O)C(F)CNC(=O)c1cnc(Nc2ccc3ncsc3c2)cc1NC(c1ccccc1)C(O)CO` (stereo not shown) [Example 27]: 86 nM and 3 nM.
With `CC(C)(O)[C@H](F)CNC(=O)c1cnc(Nc2nc3ccnn3cc2F)cc1NC1CCCOC1` (stereo partly shown) [Example 422], the IC50 in assay [1] (Homo sapiens, PBMC, 5 h) came out at 753 nM; on IRAK4 it was 11.3 nM.
In the case of `CC(C)(O)[C@H](F)CNC(=O)c1cnc(Nc2ccc3ncsc3c2)cc1Nc1ccc(C(N)=O)cc1` [Example 320], the IC50 in assay [1] (Homo sapiens, PBMC, 5 h) amounted to 270 nM; at IRAK4, 2.4 nM.
The matching figures for `CC(Nc1cc(Nc2ccc3ncsc3c2)ncc1C(=O)NC[C@@H](F)C(C)(C)O)C(F)(F)F` (stereo partly shown) [Example 91]: 64 nM and 3.7 nM.
As to `CC(C)Nc1cc(Nc2nc3scnc3cc2F)ncc1C(=O)NC[C@@H](F)C(C)(C)O` [Example 455], the IC50 stood at 573 nM in assay [1] (Homo sapiens, PBMC, 5 h) and 0.8 nM at IRAK4.
`CC(=O)N[C@H]1CC[C@@H](NC(=O)c2cnc(Nc3ccc4ncsc4c3)cc2NC(C)C)CC1` [Example 216]: the IC50 in assay [1] (Homo sapiens, PBMC, 5 h) stood at 604 nM; at IRAK4 it was 3.5 nM.
In the case of `CC(C)(O)[C@H](F)CNC(=O)c1cnc(Nc2ccc3ncc(C#N)cc3n2)cc1NC1CCC(F)C1` (stereo partly shown) [Example 411], the results for the half-maximal inhibitory concentration (IC50) (in assay [1]; on IRAK4) were 92 nM and 2.4 nM, respectively.
`CC(C)Nc1cc(Nc2ccc3cc(C#N)ccc3n2)ncc1C(=O)NC[C@@H](F)C(C)(C)O` [Example 480]: the EC50 in assay [1] (Homo sapiens, PBMC, 5 h) is 877 nM. For the same compound, the IC50 at IRAK4 worked out at 8.4 nM.
As for `CC(C)(O)[C@H](F)CNC(=O)c1cnc(Nc2nc3scnc3cc2F)cc1NC1CC1` [Example 467], the half-maximal inhibitory concentration (IC50) came out at 428 nM in assay [1] (Homo sapiens, PBMC, 5 h) and 2 nM on IRAK4.
Regarding `CC(=O)N[C@H](C)CCNC(=O)c1cnc(Nc2ccc3ncsc3c2)cc1NC(C)C` [Example 180], the half-inhibitory concentration (IC50) worked out at 415 nM in assay [1] (Homo sapiens, PBMC, 5 h) and 3.7 nM at IRAK4.
In the case of `CC(C)(O)[C@H](F)CNC(=O)c1cnc(Nc2ccc3nccn3n2)cc1NC1CCCC1F` (stereo partly shown) [Example 274], the values for the concentration for half-maximal inhibition (IC50) (in assay [1]; at IRAK4) were 712 nM and 2.8 nM, respectively.
With `CC(C)(O)[C@H](F)CNC(=O)c1cnc(Nc2ncc3ncccc3n2)cc1N[C@@H]1CCC[C@@H]1F` [Example 446], the concentration for half-maximal inhibition (IC50) in assay [1] (Homo sapiens, PBMC, 5 h) is 94 nM; at IRAK4, 10.6 nM.
For `CC(C)(O)[C@H](F)CNC(=O)c1cnc(Nc2ccc3nccnc3c2)cc1NC1CC1` [Example 82], the IC50 in assay [1] (Homo sapiens, PBMC, 5 h) came out at 366 nM; at IRAK4 it was 8 nM.

In general, IC50 refers to the point on the concentration scale where inhibition reaches its midpoint. By EC50 is commonly meant the concentration needed to bring the measured effect to its halfway point.
